These results are taken from patent US8778919B2, “Cyclic anilino—pyridinotriazines” (Janssen Pharmaceutica NV, priority 2005, dated 2014).

Holding throughout (type): biochemical
In one experiment the target is GSK-3α (Homo sapiens, UniProt P49840). In words: GSK-3 kinase assay (C1), GSK-3α. The following applies: 1 μM ATP; for IC50: read-out: C1 Score α. Summed up:
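Radiometric SPA at room temperature in 25 mM Tris pH 7.4 with 10 mM MgCl2, 1 mM DTT, 5.7 ng/μl GSK-3β or 0.25 ng/μl GSK-3α, 5 μM biotinylated CREB peptide and 1 μM ATP plus ^33P-ATP. Stopped after 1 h; IC50 from dose-response versus no-compound control, reported as pIC50 score bands.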

For the next experiment, the target named is CDK1/cyclinB (h) (Homo sapiens, UniProt P06493). In words: Kinase profiling C3.2 CDK1/cyclinB human. Conditions: test concentration of 10^−6 M. Summed up:
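Radiometric filter-binding assay: human CDK1/cyclinB (5-10 mU) with 0.1 mg/ml histone H1 substrate and [γ-33P]ATP in 8 mM MOPS pH 7.0, 10 mM Mg acetate, 40 min at room temperature. Stopped with phosphoric acid; substrate-bound 33P counted on P30 filtermat by scintillation.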

For a further experiment, the target named is CDK2/cyclinA (h) (Homo sapiens, UniProt P24941). Kind of experiment: Kinase profiling C3.3 CDK2/cyclinA human. The following applies: test concentration of 10^−6 M. Summed up:
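Human CDK2/cyclinA (5-10 mU) phosphorylates 0.1 mg/ml histone H1 in 8 mM MOPS pH 7.0, EDTA, 10 mM Mg acetate with [γ-33P]ATP, 40 min at room temperature. After phosphoric acid stop, filter-bound 33P counted by scintillation.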

In a further experiment the target is CDK2/cyclinE (h) (Homo sapiens, UniProt P24941). In words: Kinase profiling C3.4 CDK2/cyclinE human. The following applies: test concentration of 10^−6 M. An outline of the steps:
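Radiometric filter-binding assay: 5-10 mU enzyme with 0.1 mg/ml histone H1 in 8 mM MOPS pH 7.0, 0.2 mM EDTA, 10 mM Mg acetate and [γ-33P]ATP. Incubated 40 min at room temperature, stopped with phosphoric acid. Substrate-bound 33P counted on P30 filtermat.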

For the next experiment, the target named is CDK3/cyclinE (h) (Homo sapiens, UniProt Q00526). Kind of experiment: Kinase profiling C3.5 CDK3/cyclinE human. Conditions: test concentration of 10^−6 M. An outline of the steps:
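Human CDK3/cyclinE (5-10 mU) phosphorylated 0.1 mg/ml histone H1 in 8 mM MOPS pH 7.0, 0.2 mM EDTA and 10 mM MgAcetate with [γ-33P]ATP. Reaction ran 40 min at room temperature and was stopped with phosphoric acid. Substrate-bound radioactivity was captured on P30 filtermat and measured by scintillation counting.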

The target in another experiment is CDK7/cyclinH/MAT1 (h) (Homo sapiens, UniProt P50613). Kind of experiment: Kinase profiling C3.8 CDK7/cyclinH/MAT1 human. Conditions: CDK7/cyclinH/MAT1, test concentration of 10^−6 M. An outline of the steps: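 Human CDK7/cyclinH/MAT1 (5-10 mU) incubated 40 min at room temperature in 8 mM MOPS pH 7.0, 0.2 mM EDTA, 10 mM Mg acetate, 500 μM peptide substrate and [γ-^33P]ATP. Stopped with phosphoric acid; substrate phosphorylation measured by filter binding and scintillation counting.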
CDK7/cyclinH/MAT1 (h), sequence (P50613 whole entry): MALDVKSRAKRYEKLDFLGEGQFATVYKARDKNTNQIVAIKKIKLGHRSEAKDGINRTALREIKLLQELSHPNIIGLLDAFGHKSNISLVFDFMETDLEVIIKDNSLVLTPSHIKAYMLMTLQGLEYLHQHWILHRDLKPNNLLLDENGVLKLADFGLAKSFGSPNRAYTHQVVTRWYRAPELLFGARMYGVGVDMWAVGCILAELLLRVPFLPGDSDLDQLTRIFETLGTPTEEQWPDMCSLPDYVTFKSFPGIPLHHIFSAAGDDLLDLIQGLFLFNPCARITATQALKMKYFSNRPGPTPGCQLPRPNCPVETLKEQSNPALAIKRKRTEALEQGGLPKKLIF
CDK7/cyclinH/MAT1 (h), sequence (P51946 whole entry partner): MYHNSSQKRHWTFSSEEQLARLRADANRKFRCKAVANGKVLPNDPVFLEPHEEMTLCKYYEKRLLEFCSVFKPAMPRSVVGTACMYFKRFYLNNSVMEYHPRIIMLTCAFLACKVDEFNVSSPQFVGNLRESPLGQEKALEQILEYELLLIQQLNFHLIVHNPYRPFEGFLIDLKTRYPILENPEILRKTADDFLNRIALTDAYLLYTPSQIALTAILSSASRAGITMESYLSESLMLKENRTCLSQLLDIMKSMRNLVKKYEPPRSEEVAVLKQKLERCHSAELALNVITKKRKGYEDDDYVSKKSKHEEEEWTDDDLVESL
CDK7/cyclinH/MAT1 (h), sequence (P51948 whole entry partner): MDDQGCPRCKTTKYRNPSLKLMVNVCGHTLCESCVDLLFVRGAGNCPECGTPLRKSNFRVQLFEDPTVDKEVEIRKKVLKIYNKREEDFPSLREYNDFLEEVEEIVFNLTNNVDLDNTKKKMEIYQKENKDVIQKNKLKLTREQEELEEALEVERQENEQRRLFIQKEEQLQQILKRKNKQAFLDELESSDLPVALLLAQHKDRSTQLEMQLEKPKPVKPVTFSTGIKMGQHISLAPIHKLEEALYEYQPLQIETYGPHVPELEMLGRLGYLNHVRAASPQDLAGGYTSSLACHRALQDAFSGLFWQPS

CDK1/cyclinB (h), sequence (P06493 whole entry): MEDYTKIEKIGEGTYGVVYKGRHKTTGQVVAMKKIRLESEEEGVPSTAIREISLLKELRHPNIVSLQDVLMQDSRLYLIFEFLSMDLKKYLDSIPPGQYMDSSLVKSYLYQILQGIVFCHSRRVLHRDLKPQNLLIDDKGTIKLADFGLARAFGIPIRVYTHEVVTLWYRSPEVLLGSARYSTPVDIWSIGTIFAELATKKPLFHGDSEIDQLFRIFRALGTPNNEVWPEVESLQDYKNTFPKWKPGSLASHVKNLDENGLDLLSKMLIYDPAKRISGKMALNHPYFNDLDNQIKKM
CDK1/cyclinB (h), sequence (P14635 whole entry partner): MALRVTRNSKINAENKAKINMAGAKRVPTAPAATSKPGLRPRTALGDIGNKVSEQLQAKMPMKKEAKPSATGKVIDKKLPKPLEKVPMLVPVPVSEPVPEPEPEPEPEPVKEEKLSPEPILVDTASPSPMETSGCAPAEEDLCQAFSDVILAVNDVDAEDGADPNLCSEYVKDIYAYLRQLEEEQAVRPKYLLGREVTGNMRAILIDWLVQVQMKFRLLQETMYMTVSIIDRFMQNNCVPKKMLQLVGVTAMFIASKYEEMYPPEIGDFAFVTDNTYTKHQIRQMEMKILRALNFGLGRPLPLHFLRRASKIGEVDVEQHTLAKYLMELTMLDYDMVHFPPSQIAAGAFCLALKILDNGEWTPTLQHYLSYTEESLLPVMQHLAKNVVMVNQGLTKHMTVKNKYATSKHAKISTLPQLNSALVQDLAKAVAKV
GSK-3α, sequence (P49840 whole entry, species assumed): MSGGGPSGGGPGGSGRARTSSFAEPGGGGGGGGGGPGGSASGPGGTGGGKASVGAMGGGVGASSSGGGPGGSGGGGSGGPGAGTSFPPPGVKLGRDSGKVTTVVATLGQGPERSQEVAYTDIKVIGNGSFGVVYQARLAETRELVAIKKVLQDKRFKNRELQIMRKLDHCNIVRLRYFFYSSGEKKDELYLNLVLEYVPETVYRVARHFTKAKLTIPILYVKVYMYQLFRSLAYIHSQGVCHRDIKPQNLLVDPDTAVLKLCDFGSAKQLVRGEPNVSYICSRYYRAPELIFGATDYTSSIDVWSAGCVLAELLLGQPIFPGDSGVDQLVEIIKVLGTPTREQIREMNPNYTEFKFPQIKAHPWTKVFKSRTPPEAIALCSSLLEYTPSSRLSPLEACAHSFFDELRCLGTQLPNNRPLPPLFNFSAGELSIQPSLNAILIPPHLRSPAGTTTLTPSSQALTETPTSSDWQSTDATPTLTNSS

`CN1CC(=O)NCCCc2cc(ccn2)-c2ncnc(n2)Nc2cc(Cl)cc(c2)C1` [Compound 33]: the IC50 on GSK-3α was under 10 nM. Besides, the C3.2 score on CDK1/cyclinB (h) was 4 (Score 4 = >80% inhibition). At CDK2/cyclinA (h), the C3.3 score is reported as 4 (Score 4 = >80% inhibition). Also, the C3.4 score at CDK2/cyclinE (h) is given as 4 (Score 4 = >80% inhibition). Besides, the C3.5 score on CDK3/cyclinE (h) is 4 (Score 4 = >80% inhibition). The C3.8 score at CDK7/cyclinH/MAT1 (h) is given as 3 (Score 3 = 60-80% inhibition).

Take `O=C1CN2CCN(CC2)Cc2cc(Cl)cc(c2)Nc2ncnc(n2)-c2ccnc(c2)CCCN1` [Compound 41]: at GSK-3α, the IC50 is under 10 nM. Further, the C3.2 score at CDK1/cyclinB (h) is given as 4 (Score 4 = >80% inhibition). Also, the C3.3 score at CDK2/cyclinA (h) is recorded as 4 (Score 4 = >80% inhibition). Further, the C3.4 score on CDK2/cyclinE (h) is listed as 4 (Score 4 = >80% inhibition). Besides, the C3.5 score at CDK3/cyclinE (h) is on record as 3 (Score 3 = 60-80% inhibition). In addition, the C3.8 score at CDK7/cyclinH/MAT1 (h) is reported as 2 (Score 2 = 30-60% inhibition).

For `O=C1NCCCc2cncc(c2)-c2ncnc(n2)Nc2cccc(c2)CN[C@H]1CO` [Compound 81], the IC50 at GSK-3α is under 10 nM. Further, the C3.2 score on CDK1/cyclinB (h) is on record as 4 (Score 4 = >80% inhibition). In addition, the C3.3 score at CDK2/cyclinA (h) is 3 (Score 3 = 60-80% inhibition). In addition, the C3.4 score on CDK2/cyclinE (h) is 4 (Score 4 = >80% inhibition). Further, the C3.5 score on CDK3/cyclinE (h) is given as 3 (Score 3 = 60-80% inhibition). Besides, the C3.8 score at CDK7/cyclinH/MAT1 (h) is recorded as 1 (Score 1 = 10-30% inhibition).

`CCN1CC(=O)NCCCc2cccc(c2)-c2ncnc(n2)Nc2cccc(c2)C1` [Compound 54]: the IC50 at GSK-3α is under 10 nM. For the same compound, at CDK1/cyclinB (h), the C3.2 score was 3 (Score 3 = 60-80% inhibition). Also, on CDK2/cyclinA (h), the C3.3 score was 4 (Score 4 = >80% inhibition). In addition, the C3.4 score on CDK2/cyclinE (h) was 4 (Score 4 = >80% inhibition). Also, the C3.5 score at CDK3/cyclinE (h) is listed as 2 (Score 2 = 30-60% inhibition). Moreover, the C3.8 score at CDK7/cyclinH/MAT1 (h) was 1 (Score 1 = 10-30% inhibition).

Consider `O=C1CN2CCN(CC2)Cc2cccc(c2)Nc2ncnc(n2)-c2ccnc(c2)CCCN1` [Compound 9], for which the “C1 Score α” value on GSK-3α is recorded as 4 (Score 4=pIC50 value>8). In addition, on CDK1/cyclinB (h), the C3.2 score is 4 (Score 4 = >80% inhibition). Further, on CDK2/cyclinA (h), the C3.3 score is listed as 4 (Score 4 = >80% inhibition). Further, on CDK2/cyclinE (h), the C3.4 score is on record as 4 (Score 4 = >80% inhibition). For the same compound, the C3.5 score at CDK3/cyclinE (h) is on record as 3 (Score 3 = 60-80% inhibition). Further, the C3.8 score on CDK7/cyclinH/MAT1 (h) is 2 (Score 2 = 30-60% inhibition).
